What was measured:
Assay type in all cases: in vivo
corn (Zea mays) = experiment: Test A greenhouse herbicide test, pre- and postemergence; conditions: Postemergence
Method in brief: (§1)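 Seeds sown in loam–sand blend got a preemergence directed soil spray of compound in non-phytotoxic solvent with surfactant. Postemergence treatment was given at 2–10 cm, one- to two-leaf stage. After ~10 d in greenhouse, injury was rated visually vs untreated controls, 0 (no effect) to 100 (complete control).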

[1] = test system: wheat (Triticum aestivum); experiment: as above; conditions: Postemergence
Method in brief: as §1

[2] = test system: ryegrass, Italian (Italian ryegrass, Lolium multiflorum); experiment: as above
Method in brief: as §1

[3] = test system: pigweed (Amaranthus retroflexus); experiment: as above
Method in brief: as §1

[4] = test system: barnyardgrass (Echinochloa crus-galli); experiment: as above
Method in brief: as §1

kochia (Kochia scoparia) = experiment: as above
Method in brief: as §1

[5] = test system: ragweed (common ragweed, Ambrosia elatior); experiment: as above
Method in brief: as §1

[6] = test system: foxtail, giant (giant foxtail, Setaria faberii); experiment: as above
Method in brief: as §1

[7] = test system: blackgrass (Alopecurus myosuroides); experiment: Test A greenhouse herbicide test, postemergence
Method in brief: (§2)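 Greenhouse postemergence test: formulated chemicals sprayed on one- to two-leaf plants (2 to 10 cm), grown in loam soil blended with sand. Injury assessed visually about 10 d later against untreated controls, scored 0 (no effect) to 100 (complete control).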

[8] = test system: galium (catchweed bedstraw, Galium aparine); experiment: Test A greenhouse herbicide test, postemergence
Method in brief: as §2

rice (Oryza sativa) = experiment: Test B flooded paddy test; conditions: 250 g ai/ha, Flood; visual rating on scale of 0 to 100 where 0 is no effect and 100 is complete control; 13 to 15 d after treatment
Method in brief: (§3)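 Plants at the 2-leaf stage were flooded to 3 cm above soil, and test compounds were applied directly into the paddy water, which was held at that depth throughout. After 13 to 15 d in a greenhouse, injury was rated visually against untreated controls on a 0–100 scale (0 no effect, 100 complete control).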

[9] = test system: ducksalad (Heteranthera limosa); experiment: Test B flooded paddy test; conditions: 250 g ai/ha, Flood; visual rating on scale of 0 to 100 where 0 is no effect and 100 is complete control; 13 to 15 d after treatment
Method in brief: as §3

[10] = test system: barnyardgrass (Echinochloa crus-galli); experiment: Test B flooded paddy test; conditions: 250 g ai/ha, Flood; visual rating on scale of 0 to 100 where 0 is no effect and 100 is complete control; 13 to 15 d after treatment
Method in brief: as §3

[11] = test system: sedge, umbrella (small-flower umbrella sedge, Cyperus difformis); experiment: Test B flooded paddy test; conditions: 250 g ai/ha, Flood; visual rating on scale of 0 to 100 where 0 is no effect and 100 is complete control; 13 to 15 d after treatment
Method in brief: as §3

[12] = 125 g ai/ha, 0 to 100 scale where 0 is no effect and 100 is complete control
[13] = 500 g ai/ha, 0 to 100 scale, 0 is no effect, 100 is complete control
[14] = Postemergence, 125 g ai/ha, 0 to 100 scale where 0 is no effect and 100 is complete control
[15] = Postemergence, 500 g ai/ha, 0 to 100 scale, 0 is no effect, 100 is complete control
[16] = Preemergence, 125 g ai/ha, 0 to 100 scale where 0 is no effect and 100 is complete control
[17] = Preemergence, 500 g ai/ha, 0 to 100 scale where 0 is no effect and 100 is complete control
[18] = 500 g ai/ha, visual rating after approx. 10 d, 0 to 100 scale (0 no effect, 100 complete control)
[19] = Postemergence, 500 g ai/ha, visual rating after approx. 10 d, 0 to 100 scale (0 no effect, 100 complete control)

Row | SMILES | Plant response rating, Corn (corn (Zea mays); [12]) | Plant response rating, Wheat [1, 12] | Plant response rating, Ryegrass, Italian [2, 14] | Ryegrass, Italian plant response rating [2, 16] | Plant response rating, Ryegrass, Italian [2, 17] | Plant response rating, Pigweed [3, 14] | Pigweed plant response rating [3, 16] | Plant response rating, Pigweed [3, 17] | Plant response rating, Barnyardgrass [4, 14] | Barnyardgrass plant response rating [4, 16] | Plant response rating, Barnyardgrass [4, 17] | Plant response rating, Kochia (kochia (Kochia scoparia); [14]) | Kochia plant response rating (kochia (Kochia scoparia); [16]) | Plant response rating, Kochia (kochia (Kochia scoparia); [17]) | Plant response rating, Ragweed [5, 14] | Ragweed plant response rating [5, 16] | Plant response rating, Ragweed [5, 17] | Plant response rating, Foxtail, Giant [6, 14] | Foxtail, Giant plant response rating [6, 16] | Plant response rating, Foxtail, Giant [6, 17] | further results
1 | Cc1nn(C)c(=O)c(-c2cccc3ccc(OC(F)F)cc23)c1O [Compound 93] | 0 | 0 | 40 | 20 | 40 | 30 | 20 | 90 | 0 | 0 | 0 | 20 | 0 | 30 | 0 | 0 | 20 | 0 | 0 | 0 | Corn plant response rating (corn (Zea mays); [13]): 30; Wheat plant response rating [1, 13]: 20; Ryegrass, Italian plant response rating [2, 15]: 90; Pigweed plant response rating [3, 15]: 60; Barnyardgrass plant response rating [4, 15]: 20; Kochia plant response rating (kochia (Kochia scoparia); [15]): 30; Ragweed plant response rating [5, 15]: 50; Foxtail, Giant plant response rating [6, 15]: 10; Plant response rating, Blackgrass [7, 12]: 0; Blackgrass plant response rating [7, 13]: 0; Plant response rating, Galium [8, 12]: 70; Galium plant response rating [8, 13]: 90; Plant response rating, Rice (rice (Oryza sativa)): 0; Plant response rating, Ducksalad [9]: 0; Plant response rating, Barnyardgrass [10]: 0; Plant response rating, Sedge, Umbrella [11]: 50
2 | Cc1ccc2c(-c3c(O)c(C)nn(C)c3=O)c(C)ccc2c1 [Compound 110] | 0 | 0 | 70 | 20 | 80 | 70 | 90 | 100 | 0 | 0 | 20 | 50 | 0 | 100 | 60 | 30 | 40 | 0 | 10 | 40 | Plant response rating, Corn (corn (Zea mays); [18]): 20; Plant response rating, Wheat [1, 18]: 40; Plant response rating, Ryegrass, Italian [2, 19]: 90; Plant response rating, Pigweed [3, 19]: 90; Plant response rating, Barnyardgrass [4, 19]: 10; Plant response rating, Kochia (kochia (Kochia scoparia); [19]): 70; Plant response rating, Ragweed [5, 19]: 100; Plant response rating, Foxtail, Giant [6, 19]: 10; Plant response rating, Blackgrass [7, 12]: 20; Plant response rating, Blackgrass [7, 18]: 60; Plant response rating, Galium [8, 12]: 70; Plant response rating, Galium [8, 18]: 90; Plant response rating, Rice (rice (Oryza sativa)): 0; Plant response rating, Ducksalad [9]: 0; Plant response rating, Barnyardgrass [10]: 0; Plant response rating, Sedge, Umbrella [11]: 0
3 | COC(=O)Oc1c(OC)nn(C)c(=O)c1-c1c(C)sc2ccc(Cl)cc12 [Compound 112] | 0 | 20 | 80 | 90 | 100 | 20 | 90 | 100 | 20 | 10 | 20 | 20 | 20 | 80 | 60 | 40 | 80 | 20 | 50 | 60 | Plant response rating, Corn (corn (Zea mays); [18]): 30; Plant response rating, Wheat [1, 18]: 30; Plant response rating, Ryegrass, Italian [2, 19]: 100; Plant response rating, Pigweed [3, 19]: 30; Plant response rating, Barnyardgrass [4, 19]: 20; Plant response rating, Kochia (kochia (Kochia scoparia); [19]): 30; Plant response rating, Ragweed [5, 19]: 80; Plant response rating, Foxtail, Giant [6, 19]: 50; Plant response rating, Blackgrass [7, 12]: 40; Plant response rating, Blackgrass [7, 18]: 80; Plant response rating, Galium [8, 12]: 70; Plant response rating, Galium [8, 18]: 90; Plant response rating, Rice (rice (Oryza sativa)): 0; Plant response rating, Ducksalad [9]: 0; Plant response rating, Barnyardgrass [10]: 0; Plant response rating, Sedge, Umbrella [11]: 0
4 | CCc1nn(C)c(=O)c(-c2c(C)oc3ccc(C)cc23)c1O [Compound 118] | 0 | 0 | 0 | 0 | 0 | 0 | 0 | 10 | 0 | 0 | 30 | 0 | 0 | 0 | 0 | 0 | 0 | 0 | 0 | 20 | Plant response rating, Corn (corn (Zea mays); [18]): 0; Plant response rating, Wheat [1, 18]: 0; Plant response rating, Ryegrass, Italian [2, 19]: 0; Plant response rating, Pigweed [3, 19]: 0; Plant response rating, Barnyardgrass [4, 19]: 0; Plant response rating, Kochia (kochia (Kochia scoparia); [19]): 0; Plant response rating, Ragweed [5, 19]: 0; Plant response rating, Foxtail, Giant [6, 19]: 0; Plant response rating, Blackgrass [7, 12]: 0; Plant response rating, Blackgrass [7, 18]: 0; Plant response rating, Galium [8, 12]: 0; Plant response rating, Galium [8, 18]: 0; Plant response rating, Rice (rice (Oryza sativa)): 0; Plant response rating, Ducksalad [9]: 0; Plant response rating, Barnyardgrass [10]: 0; Plant response rating, Sedge, Umbrella [11]: 0
5 | Cc1ccc2oc(C)c(-c3c(O)c(C(C)C)nn(C)c3=O)c2c1 [Compound 119] | 0 | 0 | 0 | 0 | 0 | 0 | 0 | 0 | 0 | 0 | 0 | 0 | 0 | 0 | 0 | 0 | 0 | 0 | 0 | 0 | Plant response rating, Corn (corn (Zea mays); [18]): 0; Plant response rating, Wheat [1, 18]: 0; Plant response rating, Ryegrass, Italian [2, 19]: 0; Plant response rating, Pigweed [3, 19]: 0; Plant response rating, Barnyardgrass [4, 19]: 0; Plant response rating, Kochia (kochia (Kochia scoparia); [19]): 0; Plant response rating, Ragweed [5, 19]: 0; Plant response rating, Foxtail, Giant [6, 19]: 0; Plant response rating, Blackgrass [7, 12]: 0; Plant response rating, Blackgrass [7, 18]: 0; Plant response rating, Galium [8, 12]: 0; Plant response rating, Galium [8, 18]: 0; Plant response rating, Rice (rice (Oryza sativa)): 0; Plant response rating, Ducksalad [9]: 0; Plant response rating, Barnyardgrass [10]: 0; Plant response rating, Sedge, Umbrella [11]: 0
